Laboratory results: patent US20220073496A1, “NOVEL QUINOLINE DERIVATIVE INHIBITOR” (Nanjing Transthera Biosciences Co., Ltd., priority 2018, published 2022)

Tests used:
Tyro-3 (h) = molecular target: T1, Tyro-3 (h) (Homo sapiens, UniProt Q06418); assay: Enzymatic activity test, Tyro-3 (h); assay type: biochemical; conditions: 10 μM [γ-33P]-ATP, 40 minutes, room temperature
T1 construct: purchased
T1 sequence (Q06418 41-890): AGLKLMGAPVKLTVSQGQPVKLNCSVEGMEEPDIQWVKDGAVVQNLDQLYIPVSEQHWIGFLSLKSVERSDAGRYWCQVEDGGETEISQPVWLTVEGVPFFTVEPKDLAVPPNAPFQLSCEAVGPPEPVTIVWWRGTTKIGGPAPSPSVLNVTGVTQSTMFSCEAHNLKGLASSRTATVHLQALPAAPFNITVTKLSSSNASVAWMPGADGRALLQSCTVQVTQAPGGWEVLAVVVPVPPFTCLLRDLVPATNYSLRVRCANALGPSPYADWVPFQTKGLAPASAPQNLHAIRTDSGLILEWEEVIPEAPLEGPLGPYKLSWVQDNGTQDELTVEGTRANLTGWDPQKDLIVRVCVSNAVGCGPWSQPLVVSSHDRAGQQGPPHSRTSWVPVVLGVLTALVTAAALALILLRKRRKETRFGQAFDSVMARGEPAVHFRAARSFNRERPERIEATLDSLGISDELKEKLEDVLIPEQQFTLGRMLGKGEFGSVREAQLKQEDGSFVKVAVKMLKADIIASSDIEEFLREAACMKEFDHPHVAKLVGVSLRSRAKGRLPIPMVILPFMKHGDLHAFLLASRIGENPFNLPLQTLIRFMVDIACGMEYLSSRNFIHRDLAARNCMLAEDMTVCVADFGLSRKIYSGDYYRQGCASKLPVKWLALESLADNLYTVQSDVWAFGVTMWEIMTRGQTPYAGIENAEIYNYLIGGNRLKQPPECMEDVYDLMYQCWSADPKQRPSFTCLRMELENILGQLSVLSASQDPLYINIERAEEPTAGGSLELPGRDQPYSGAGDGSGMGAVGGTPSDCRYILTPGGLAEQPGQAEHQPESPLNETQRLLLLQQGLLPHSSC
Protocol: Assay 3: Enzymatic Activity Test of the Compounds of the Present Invention
Test substances: the compounds of the present invention, wherein the structures and preparations thereof were as described above.
(1) Preparation of the Compound Stock Solution
The compound was dissolved in 100% DMSO to prepare a stock solution with a maximum concentration of 500 μM.
(2) Preparation of the Compound Working Solution
The compound stock solution was diluted to final concentrations of 500, 150, 50, 15, 5, 1.5, 0.5, 0.15 and 0.05 μM to become the compound working solutions (50×).
(3) Preparation of Different Enzyme Reaction Solutions
The Tyro3 (h) enzyme was dissolved in 8 mM MOPS (pH 7.0), 0.2 mM EDTA, 1 mM MnCl2, and 250 μM KVEKIGEGTYGVVYK to prepare an enzyme solution having a final concentration of 38 nM. The enzymatic reaction was activated by using 10 mM magnesium acetate and 10 μM [γ-^33P]-ATP to form an Mg/ATP mixed solution.
In a 384-well plate, the compound working solution was added to final concentrations of 10000, 3000, 1000, 300, 100, 30, 10, 3, and 1 nM. Then different enzyme reaction solutions prepared according to the above conditions were added. The incubation was carried out for 40 minutes at room temperature. The test was terminated by the addition of a 0.5% phosphoric acid solution. 10 μL of the reaction solution was taken and dropped to the P30 filter paper. The filter paper was washed 4 times with 0.425% phosphoric acid solution and once with methanol, and then placed on a scintillation counter. The […] IC50 values were calculated using GraphPad 5.0 software.

H1299 cell pAxl = molecular target: T2, H1299 cell pAxl (Homo sapiens, UniProt P30530); assay: Inhibitory activity on the cell pAxl (Western Blot); assay type: cell-based; conditions: H1299 cells, compound 1.1, 3.3, 10, 30 nM, hGAS6 200 ng/mL
T2 construct: endogenous in cells; host or cells: H1299
T2 sequence (P30530 26-894): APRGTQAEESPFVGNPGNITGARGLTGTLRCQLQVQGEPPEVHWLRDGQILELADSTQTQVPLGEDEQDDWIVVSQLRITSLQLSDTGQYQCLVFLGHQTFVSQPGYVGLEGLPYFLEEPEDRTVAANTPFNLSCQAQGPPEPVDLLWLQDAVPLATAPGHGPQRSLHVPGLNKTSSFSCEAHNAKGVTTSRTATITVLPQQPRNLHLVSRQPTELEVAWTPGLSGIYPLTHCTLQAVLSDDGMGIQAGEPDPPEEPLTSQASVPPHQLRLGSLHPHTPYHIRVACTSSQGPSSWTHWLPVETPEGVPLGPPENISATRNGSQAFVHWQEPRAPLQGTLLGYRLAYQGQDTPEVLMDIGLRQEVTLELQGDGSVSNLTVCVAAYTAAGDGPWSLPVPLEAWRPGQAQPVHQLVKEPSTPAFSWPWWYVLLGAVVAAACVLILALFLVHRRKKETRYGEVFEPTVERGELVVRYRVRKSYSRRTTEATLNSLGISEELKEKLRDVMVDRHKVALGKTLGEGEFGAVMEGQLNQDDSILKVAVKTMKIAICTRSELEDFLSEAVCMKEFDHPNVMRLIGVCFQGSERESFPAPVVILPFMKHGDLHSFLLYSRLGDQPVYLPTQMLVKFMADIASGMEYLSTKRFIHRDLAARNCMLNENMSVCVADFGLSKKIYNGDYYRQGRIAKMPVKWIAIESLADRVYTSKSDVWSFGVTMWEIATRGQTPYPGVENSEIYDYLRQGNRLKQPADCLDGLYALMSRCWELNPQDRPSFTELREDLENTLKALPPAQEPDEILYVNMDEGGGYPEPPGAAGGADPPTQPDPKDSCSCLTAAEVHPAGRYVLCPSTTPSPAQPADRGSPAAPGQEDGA
Protocol: Assay 5: Test for Inhibitory Activities of the Compounds of the Present Invention on the Cell pAxl
H1299 is a non-small cell lung cancer cell.
Test substances: the compounds of the present invention, wherein the structures thereof were as described above.
Test equipment: protein electrophoresis apparatus (manufactured by Bio Rad), transfer unit (manufactured by Bio Rad), exposure unit (manufactured by Tanon), CO2, cell incubator (manufactured by Thermo).
The H1299 cells were inoculated in a 6-well plate (containing 10% FBS 1640 medium, 5×10^5 cells per well), and adherent cells were cultivated at 37° C. in a 5% CO2 condition for 18 hours. The cells were starved overnight. Different concentrations of compounds were added. The final compound concentrations were 1.1, 3.3, 10, and 30 nM, and the final DMSO content was 1‰. The negative control wells contained the medium containing 1‰ DMSO. After incubating at 37° C. in a 5% CO2 condition for 60 minutes, hGAS6 (R&D, final concentration 200 ng/mL) was added to each well. After further incubating for 60 minutes, the cell total protein was extracted for Western Blot and the […] values were calculated using GraphPad 5.0 software. The inhibitory activity of the compound on the cell pAxl was examined.

IC50 (Tyro-3 (h))	IC50 (H1299 cell pAxl)	Compound
93 nM	3.3 nM	COc1cc2nccc(Oc3ccc(NC(=O)c4cn(C(C)C)nc(-c5ccc(F)cc5)c4=O)cn3)c2cc1OC [Compound 38, N-(6-((6,7-dimethoxyquinolin-4-yl)oxy)pyridin-3-yl)-6-para-fluorophenyl-2-isopropyl-5-oxo-2,5-dihydropyridazine-4-carboxamide]
36 nM	3.3 nM	COc1cc2nccc(Oc3cnc(NC(=O)c4cn(C(C)C)nc(-c5ccc(F)cc5)c4=O)nc3)c2cc1OC [Compound 39, N-(5-((6,7-dimethoxyquinolin-4-yl)oxy)pyrimidine-2-yl)-6-(4-fluorophenyl)-2-isopropyl-5-oxo-2,5-dihydropyridazine-4-carboxamide]
143 nM	10 nM	COc1cc2nccc(Oc3ncc(NC(=O)c4cn(C(C)C)nc(-c5ccc(F)cc5)c4=O)cn3)c2cc1OC [Compound 40, N-(2-((6,7-dimethoxyquinolin-4-yl)oxy)pyrimidine-5-yl)-6-(4-fluorophenyl)-2-isopropyl-5-oxo-2,5-dihydropyridazine-4-carboxamide]
65 nM	< 10 nM	COc1cc2nccc(Oc3ccc(NC(=O)c4cn(C(C)C)nc(-c5ccc(F)cc5)c4=O)nc3)c2cc1OC [Compound 41, N-(5-((6,7-dimethoxyquinolin-4-yl)oxy)pyridin-2-yl)-6-(4-fluorophenyl)-2-isopropyl-5-oxo-2,5-dihydropyridazine-4-carboxamide]
